Test results taken from ChEMBL document CHEMBL3507680, “University of Dundee, Gates Library screen for HepG2 cell viability”.

Experiment: Human HepG2 cell viability assay in 384 well format
Assay type: toxicity, cell-based
Parameters: dose 125 nL, time 70.5 hour; concentration not given beside the values
Conditions: HepG2 cells, read-out: Inhibition

SMILES | cytotoxicity at 70.5 h [%]
O=S1(=O)N(c2ccccc2)C[C@@H](O)[C@]12CCNC2 | -3.92
CO[C@@H]1CN(c2ccccc2)S(=O)(=O)[C@@]12CCNC2 | 11.6
CN1CC[C@H](N(C)Cc2ccccc2)C[C@H](O)C1 | -10.5
CN1CC[C@H](N(Cc2ccccc2)C2COC2)C[C@H](O)C1 | -6.77
COC(=O)CC1c2cccnc2C(=O)N1Cc1ccccc1 (stereo unspecified) | -3.32
CCOC(=O)N1[C@@H](c2ccco2)[C@@H](C(=O)O)C[C@]12CCCCNC2=O | -7.52
CCN1Cc2cc(F)ccc2N(CC(O)C(F)(F)F)CCC1=O (stereo unspecified) | -8.41
CCCC(O)CN1CCC(=O)N(CC)Cc2cc3c(cc21)OCO3 (stereo unspecified) | -3.11
CN1C(=O)[C@H](OC(N)=O)[C@@H](C(=O)Nc2ccccc2)C12CCNCC2 | -10.7
CC(C)COC(=O)N1[C@@H](c2ccco2)[C@@H](CO)C[C@]12CCCCNC2=O | -9.55
CCN1CCC(=O)N(C)Cc2cc(F)ccc21 | -8.5
O=C(Nc1ccccc1)N1C(CN2CCOCC2)[C@]2(O)CC[C@H]1CC2 (stereo partly specified) | -2.88
O=C1CCNc2ncc(-c3cccc(Cl)c3)cc2CN1C1CC1 | -1.89
O=C1CCNc2ncc(-c3ccccc3Cl)cc2CN1C1CC1 | 0.196
NC(=O)CN1CC(O)c2ccccc2S1(=O)=O (stereo unspecified) | -9.19
COC1CN(CCO)S(=O)(=O)c2ccccc21 (stereo unspecified) | -7.83
O=C1CCNc2cc3c(cc2CN1Cc1ccco1)OCO3 | -5.93
CCOC(=O)[C@@H]1[C@@H](c2ccccc2)CN2CCNC[C@H]12 | -11
CO[C@@H]1CN(c2ccccc2)S(=O)(=O)[C@@]12CCN(Cc1ccccc1)C2 | -1.84
CO[C@@H]1CN(c2ccccc2)S(=O)(=O)[C@@]12CCN(Cc1cncs1)C2 | -2.7
CO[C@H]1CN(c2ccccc2)S(=O)(=O)[C@@]12CCN(Cc1ccccc1)C2 | 19.1
CC(O)CN1CCC(=O)N(Cc2ccccc2)Cc2ccccc21 (stereo unspecified) | 21.2
COCC(O)CN1CCC(=O)N(CC=C(C)C)Cc2ccccc21 (stereo unspecified) | -6.53

SMILES | cytotoxicity at 70.5 h [%]
COCCN1CC(O)CN(C(=O)c2ccc(SC)cc2)CC1=O (stereo unspecified) | -4.29
CCOC(=O)N1CC(=O)N(Cc2ccc(OC)cc2)CC(O)C1 (stereo unspecified) | 0.836
CC(C)CN1CC(O)CN(C(=O)c2cccc(C(F)(F)F)c2)CC1=O (stereo unspecified) | 13.3
CCCC(O)CN1CC(C)(C)CN(C(=O)CCc2ccccc2)CC1=O (stereo unspecified) | 19.5
CC(C)(C)CN1CC(O)CN(C(=O)c2cccc(C(F)(F)F)c2)CC1=O (stereo unspecified) | -7.28
COc1ccccc1C(=O)N1CC(=O)N(C2CCCCC2)CC(O)C1 (stereo unspecified) | 15.8
O=C1CN(C(=O)c2ccc(Cl)cc2)CC(O)CN1Cc1cccs1 (stereo unspecified) | -5.51
COC1CCN(C(=O)CC(C)(C)C)CC(=O)N(C)c2ccccc21 (stereo unspecified) | 6.54
COC1CCN(C(=O)Nc2ccccc2)CC(=O)N(C)c2ccccc21 (stereo unspecified) | -6.71
CCOC(=O)CNC(=O)N1CCC(OC)c2ccccc2N(C)C(=O)C1 (stereo unspecified) | -6.05
CCOC(=O)COC1CCN(C(C)=O)CC(=O)N(C)c2ccccc21 (stereo unspecified) | -3.91
O=C(CC1CCCC1)N1CCN2C[C@@H](CO)[C@H](c3ccccc3)[C@H]2C1 | 24.2
CNC(=O)[C@@H]1[C@@H](c2ccccc2)CN2CCN(Cc3cc(C)no3)C[C@H]12 | -4.59
CCCn1cnnc1CN(C)C(=O)C1CCCN(C2CCN(C)CC2)C1 (stereo unspecified) | -9.33
COCC[C@]1(O)CCN(C2CCN(C(=O)C3CCC3)CC2)C[C@H]1C | -9.1
CN(Cc1cccc2ncccc12)C(=O)CCC(F)(F)F | 27.3
CC(C)N1CC2(CCCN(c3ccccn3)C2)CCC1=O (stereo unspecified) | -6.62
CCCc1nnc(N2CCC3(CC2)CN(C)C(=O)O3)o1 | 2.82
COc1cccc(OCC2CCCN(Cc3ccncc3)C2)c1 (stereo unspecified) | -10.6
CCN1CCC(CC(=O)N[C@H](C(=O)O)c2cccc(F)c2F)CC1 | -2.11
Cn1ccnc1C1CCCN(C(=O)c2cc(F)cc(F)c2)C1 (stereo unspecified) | -6.29
CC(C)=CCN1C(=O)[C@H]2CC[C@@H]1CN(C(=O)CCc1n[nH]c(C)c1C)C2 | 11.2
CC(c1cccc(-c2cn(Cc3ccoc3)nn2)c1)N(C)C (stereo unspecified) | -2.66

SMILES | cytotoxicity at 70.5 h [%]
Cc1ccc(O)c(CN(Cc2ccccc2)Cc2nccs2)n1 | -4.83
Cc1ccc(C(=O)N(C)CCCc2cnn(C)c2)cc1N1CCNC1=O | 46.5
CCOCCn1nc(C)cc1C(=O)N1CC[C@](C)(O)C(C)(C)C1 | 2.52
Cc1n[nH]c(C)c1CCN(C)C(=O)C(c1cccnc1)N1CCOCC1 (stereo unspecified) | -4.73
COc1cccc2c1OCC(C(=O)N1CCN(S(=O)(=O)N(C)C)CC1)C2 (stereo unspecified) | -2.76
CSCCCNC(=O)c1coc(Cn2cnc3ccccc32)n1 | -6.75
CN(Cc1cc[nH]n1)C(=O)c1ccc2c(c1)nc(N1CC[C@H](O)C1)n2C | -1.12
CSc1nccc(-c2cccc(-c3ccn(CC4COCCO4)n3)c2)n1 (stereo unspecified) | -13.8
Cc1ccc(Oc2ncccc2CNC2Cc3ccccc3C2)cn1 | -8.21
CCC[C@@H]1CN(C(=O)c2cc3ccccc3cc2O)C[C@H]1N(C)C | 28.4
Cc1cc(NC(C)Cn2cccn2)n2nccc2n1 (stereo unspecified) | -12.5
O=C(c1ncc(F)cc1F)N1CCC(c2ncc[nH]2)CC1 | -14
CC(=O)c1cc(CN2C[C@@H](C(=O)O)[C@H](c3cccnc3)C2)cs1 | -7.32
CN1CCN(Cc2ccc(-c3ccc(-c4ccn[nH]4)cc3)nc2)CC1 | 0.0371
Cc1ccc(CN2CCN(CC(=O)N(C)C)[C@@H]3CS(=O)(=O)C[C@@H]32)cc1C | -3.23
CN(C(=O)c1cccc(NCC(=O)O)c1)C(C1CC1)C1CC1 | -8.7
Cc1ccc(CC(=O)N2C[C@@H](CN(C)C)[C@@H](CO)C2)cc1C | -2.62
CC(C)c1nccc(CN2CCC(c3nc4ccccc4n3C)CC2)n1 | -20.5
CCC1CN(C(=O)c2ccc(=O)[nH]n2)CCC(=O)N1Cc1ccccc1 (stereo unspecified) | 1.68
CNC(=O)CNC(=O)CC1C(=O)NCCN1Cc1ccccc1C (stereo unspecified) | -5.79
COc1cccc(-c2cccc(CN3C[C@@H]4CC[C@H](C3)N(C)C4=O)c2)c1 | 14.8
Cc1nn(C)c(C)c1CCC(=O)NCc1csc(N2CCCC2)n1 | 2.01
Cc1[nH]c(-c2ccccc2)nc1C(=O)N1CCC2(CCCO2)CC1 | -2.81

SMILES | cytotoxicity at 70.5 h [%]
CN(CCc1ccccc1)c1cnn(CC(=O)N2CCOCC2)c(=O)c1 | -7.73
CCOCC(O)CN1CCN(C(=O)c2ccc(OC)cc2)CC1 (stereo unspecified) | -9.9
CC(C)N(C)S(=O)(=O)N(C)Cc1ccc2c(c1)OCCO2 | 4.58
CC(NC(=O)NCc1ccccn1)c1ccc2c(c1)CCC(=O)N2 (stereo unspecified) | -6.54
CC(Cn1cccn1)NC(=O)Nc1nncs1 (stereo unspecified) | -2.31
Cc1nc(CNC(=O)NCc2cccnc2N(C)C)cs1 | -5.06
COC(=O)C(NC(=O)C1CCCC1)c1cc(F)ccc1F (stereo unspecified) | 0.552
CC(O)CN1CCN(C(=O)c2cc3ccccc3n2C)CC1 (stereo unspecified) | 14.8
Cc1nc(C2CCCN2C(=O)CCCn2cccn2)no1 (stereo unspecified) | 3.27
Cn1cnnc1C1CCCN(C(=O)NCc2ccccn2)C1 (stereo unspecified) | 15.7
CN(Cc1ccco1)C(=O)C1CSCN1C(=O)c1cccs1 (stereo unspecified) | 12.5
CCc1c(C(=O)N2CCCC(N(C)C)C2)cnn1C(C)(C)C (stereo unspecified) | -4.41
Cc1nn(C)c(C)c1C1CCCN1C(=O)CCNS(C)(=O)=O (stereo unspecified) | -5.69
Cc1nc2n(n1)CC(NCc1cc(Cl)c3c(c1)OCCO3)CC2 (stereo unspecified) | -4.92
Cc1nn(C)c(Cl)c1C1CCCN1C(=O)CCNc1ncccn1 (stereo unspecified) | -2.34
COc1c(C2CCCN2C(=O)CCNc2ncccn2)c(C)nn1C (stereo unspecified) | -10.7
COc1cc(CNC2CCc3nc(C)nn3C2)cc2c1OCO2 (stereo unspecified) | -5.53
Cc1nnc(NC(=O)NCc2ccc(OC3CCCC3)nc2)s1 | 1.95
Cc1[nH]ncc1CCCNC(=O)N1CCCC(c2nncn2C)C1 (stereo unspecified) | -1.78
Cn1cc(CCNC(=O)N2CCCC(c3nncn3C)C2)cn1 (stereo unspecified) | -4.93
CCOCCCn1c(NC(=O)c2cnc(C)cn2)nc2ccccc21 | -5.61
CCc1c(C(=O)N2CCC(CC(N)=O)CC2)cnn1C(C)(C)C | -3.41
CCOCCCn1c(NC(=O)c2cc(C)no2)nc2ccccc21 | 2.27

SMILES | cytotoxicity at 70.5 h [%]
Cc1ccccc1CN(C)C(=O)CN1CCCC(Cn2cncn2)C1 (stereo unspecified) | -6.64
CC(O)CN1CCN(Cc2coc(-c3ccc(Cl)cc3)n2)CC1 (stereo unspecified) | -5.87
Cc1cnc(CN(C)C2CCCN(Cc3noc(C4CC4)n3)C2)cn1 (stereo unspecified) | 16.1
Cc1cc(CN(C)C2CCCN(Cc3noc(C)n3)C2)no1 (stereo unspecified) | 7.31
Cc1nnc(CN(C)C2CCCN(Cc3noc(C4CC4)n3)C2)o1 (stereo unspecified) | -8.76
CN(Cc1ccccn1)C1CCCN(Cc2noc(C3CC3)n2)C1 (stereo unspecified) | -8.62
CCc1ncncc1C(=O)N1CCCN(Cc2ccccc2C)CC1 | -8.2
Cc1cc(NC(=O)CN2CCCC2Cn2nc(C)nc2C)n(C)n1 (stereo unspecified) | -14.8
CCc1ccc(C(=O)NCCNc2ncccn2)cc1 | 11.9
O=C(Cc1ccc2c(c1)CCCC2)NCCNc1cnccn1 | -11.7
Cc1cccc(N2CCN(C(=O)CCc3c(C)noc3Cl)CC2)c1 | -8.69
O=C(CNC(=O)c1ccc2c(c1)CCC2)NCCNc1ncccn1 | -14.4
Cc1cnn(C2CN(CC(=O)NCCc3ccsc3)C2)c1 | -13.7
CCCOCC(=O)NS(=O)(=O)c1ccc2c(c1)OCCO2 | -0.678
Cc1cnn(C2CN(CC(=O)NCCc3c[nH]c4ccccc34)C2)c1 | -9.92
O=C(COCC(F)(F)F)NS(=O)(=O)c1ccc2c(c1)OCCCO2 | -6.81
CC(C)CC(=O)NS(=O)(=O)c1ccc2c(c1)OCCCO2 | -8.04
COc1cc(CCC(=O)NC(C)C(=O)O)ccc1OCC(F)(F)F (stereo unspecified) | -13
CCCc1ccc(OCCNCc2ccco2)c(OC)c1 | -1.62
